Laboratory results taken from ChEMBL document CHEMBL1201862, “PubChem BioAssay data set” (2004).
The source made the active and inactive calls.

Tests used:
[1] = target: FAD-linked sulfhydryl oxidase ALR (Homo sapiens, UniProt P55789); experiment: inhibitors of human ALR sulfhydryl oxidase, dose response, biochemical, H2O2 detection, luminescence, cherry-pick (AID 493248)
[2] = target: T1, Ubiquitin-conjugating enzyme E2 N (Homo sapiens, UniProt P61088); format: functional;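 also: Dose-response confirmation in a TR-FRET assay detecting UBC13-driven polyubiquitin chain formation, inhibition measured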
T1 sequence (P61088 whole entry): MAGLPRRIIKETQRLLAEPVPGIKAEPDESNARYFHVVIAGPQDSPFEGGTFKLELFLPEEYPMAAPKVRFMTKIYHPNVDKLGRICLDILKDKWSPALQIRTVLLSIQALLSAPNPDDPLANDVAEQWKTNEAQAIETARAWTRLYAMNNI

[3] = microbe, parasite or virus in culture; format: functional; settings: Mycobacterium tuberculosis
[4] = target: T2, DNA repair protein RAD52 homolog (Homo sapiens, UniProt P43351); format: functional, biochemical
T2 sequence (P43351 whole entry): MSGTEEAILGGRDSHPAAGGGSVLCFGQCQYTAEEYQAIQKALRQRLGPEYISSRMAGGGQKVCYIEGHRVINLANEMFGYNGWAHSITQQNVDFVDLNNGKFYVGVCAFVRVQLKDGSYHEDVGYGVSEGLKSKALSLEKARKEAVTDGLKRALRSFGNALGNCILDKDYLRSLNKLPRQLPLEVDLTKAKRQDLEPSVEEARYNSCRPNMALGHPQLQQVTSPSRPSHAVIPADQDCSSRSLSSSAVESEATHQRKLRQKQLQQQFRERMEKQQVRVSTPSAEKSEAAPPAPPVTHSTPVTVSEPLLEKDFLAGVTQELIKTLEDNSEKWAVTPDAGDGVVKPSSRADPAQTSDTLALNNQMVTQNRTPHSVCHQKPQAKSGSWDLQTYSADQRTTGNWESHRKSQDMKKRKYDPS

[5] = target: Hepatocyte nuclear factor 4-alpha (Homo sapiens, UniProt P41235); format: functional, cell-based;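 also: biochemical luminescence-based dose-response counterscreen measuring inhibition of HNF4 dimerization, run alongside a screen for blockers of ABHD5–perilipin-5 interaction; split luciferase complementation of HNF4 fusion proteins in cell lysate measuring dimerization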
[6] = target: T3, Sentrin-specific protease 8 (Homo sapiens, UniProt Q96LD8); format: functional
T3 sequence (Q96LD8 whole entry): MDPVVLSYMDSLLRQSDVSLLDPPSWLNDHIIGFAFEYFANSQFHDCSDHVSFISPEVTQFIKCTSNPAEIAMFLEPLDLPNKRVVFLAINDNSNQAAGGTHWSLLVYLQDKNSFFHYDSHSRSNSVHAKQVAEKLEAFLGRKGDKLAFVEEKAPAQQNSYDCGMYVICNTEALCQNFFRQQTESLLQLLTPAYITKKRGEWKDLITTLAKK

[7] = target: T3, Sentrin-specific protease 8; format: functional; remark: listed apart in the source
[8] = target: T4, Caspase-3 (Homo sapiens, UniProt P42574); experiment: Dose-response confirmation of uHTS inhibitor hits of Sentrin-Specific Protease 8 in a Caspase-3 Fluorescence assay.; format: functional
T4 sequence (P42574 whole entry): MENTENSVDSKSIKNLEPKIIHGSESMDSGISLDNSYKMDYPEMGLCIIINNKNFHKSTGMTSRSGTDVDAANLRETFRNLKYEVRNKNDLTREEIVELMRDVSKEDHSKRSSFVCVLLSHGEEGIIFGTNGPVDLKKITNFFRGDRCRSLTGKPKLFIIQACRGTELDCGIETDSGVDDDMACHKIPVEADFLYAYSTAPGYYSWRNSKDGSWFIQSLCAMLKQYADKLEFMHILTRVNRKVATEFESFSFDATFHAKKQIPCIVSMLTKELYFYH

[9] = target: Mu-type opioid receptor (Homo sapiens, UniProt P35372); format: functional, cell-based;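 also: U2OS cells with beta-arrestin recruitment to OPRM1 by beta-gal complementation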
Mu-type opioid receptor, sequence (P35372 whole entry): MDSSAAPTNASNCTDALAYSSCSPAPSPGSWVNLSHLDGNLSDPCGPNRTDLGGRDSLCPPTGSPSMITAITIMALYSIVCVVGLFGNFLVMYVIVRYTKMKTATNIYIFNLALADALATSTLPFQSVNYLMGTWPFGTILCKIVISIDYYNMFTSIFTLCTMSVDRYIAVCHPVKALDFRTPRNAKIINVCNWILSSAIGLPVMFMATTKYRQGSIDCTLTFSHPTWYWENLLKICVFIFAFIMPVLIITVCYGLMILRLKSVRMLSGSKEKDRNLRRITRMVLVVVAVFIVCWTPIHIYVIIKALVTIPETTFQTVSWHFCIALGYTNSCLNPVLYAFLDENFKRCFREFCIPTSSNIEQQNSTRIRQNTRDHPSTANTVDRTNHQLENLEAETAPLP

[10] = target: 5-hydroxytryptamine receptor 2A (Mus musculus, UniProt P35363); format: functional, cell-based;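 also: CHO-K1 cells with tagged receptor and beta-arrestin; agonist potency measured as compound-induced activation of the receptor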
5-hydroxytryptamine receptor 2A, sequence (P35363 whole entry): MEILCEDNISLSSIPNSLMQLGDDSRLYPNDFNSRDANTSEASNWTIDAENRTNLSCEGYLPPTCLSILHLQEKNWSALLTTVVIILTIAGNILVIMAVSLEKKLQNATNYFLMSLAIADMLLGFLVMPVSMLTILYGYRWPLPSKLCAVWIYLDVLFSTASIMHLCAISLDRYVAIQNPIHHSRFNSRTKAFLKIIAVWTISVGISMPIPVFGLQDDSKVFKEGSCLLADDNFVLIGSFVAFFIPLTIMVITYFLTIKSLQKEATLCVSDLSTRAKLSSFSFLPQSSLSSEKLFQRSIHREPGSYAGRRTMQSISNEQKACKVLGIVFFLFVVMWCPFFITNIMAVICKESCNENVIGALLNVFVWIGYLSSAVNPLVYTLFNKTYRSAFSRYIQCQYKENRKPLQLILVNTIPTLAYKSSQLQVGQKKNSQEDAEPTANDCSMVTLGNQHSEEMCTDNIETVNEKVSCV

[11] = target: Dual specificity protein phosphatase 3 (Homo sapiens, UniProt P51452); experiment: VHR phosphatase inhibition, dose response, selectivity assay for STEP inhibitor project, biochemical (AID 602374); format: functional; settings: read-out: IC50_Mean
Dual specificity protein phosphatase 3, sequence (P51452 whole entry): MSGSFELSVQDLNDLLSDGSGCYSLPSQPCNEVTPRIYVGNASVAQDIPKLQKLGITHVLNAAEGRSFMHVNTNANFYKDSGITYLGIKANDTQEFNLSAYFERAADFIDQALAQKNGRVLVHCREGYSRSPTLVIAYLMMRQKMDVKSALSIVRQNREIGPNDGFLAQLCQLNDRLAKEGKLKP

[12] = target: Tyrosine-protein phosphatase non-receptor type 22 (Homo sapiens, UniProt Q9Y2R2); experiment: PTPN22 phosphatase inhibition, dose response, selectivity assay for STEP inhibitor project, biochemical (AID 624241); format: functional
Tyrosine-protein phosphatase non-receptor type 22, sequence (Q9Y2R2 whole entry): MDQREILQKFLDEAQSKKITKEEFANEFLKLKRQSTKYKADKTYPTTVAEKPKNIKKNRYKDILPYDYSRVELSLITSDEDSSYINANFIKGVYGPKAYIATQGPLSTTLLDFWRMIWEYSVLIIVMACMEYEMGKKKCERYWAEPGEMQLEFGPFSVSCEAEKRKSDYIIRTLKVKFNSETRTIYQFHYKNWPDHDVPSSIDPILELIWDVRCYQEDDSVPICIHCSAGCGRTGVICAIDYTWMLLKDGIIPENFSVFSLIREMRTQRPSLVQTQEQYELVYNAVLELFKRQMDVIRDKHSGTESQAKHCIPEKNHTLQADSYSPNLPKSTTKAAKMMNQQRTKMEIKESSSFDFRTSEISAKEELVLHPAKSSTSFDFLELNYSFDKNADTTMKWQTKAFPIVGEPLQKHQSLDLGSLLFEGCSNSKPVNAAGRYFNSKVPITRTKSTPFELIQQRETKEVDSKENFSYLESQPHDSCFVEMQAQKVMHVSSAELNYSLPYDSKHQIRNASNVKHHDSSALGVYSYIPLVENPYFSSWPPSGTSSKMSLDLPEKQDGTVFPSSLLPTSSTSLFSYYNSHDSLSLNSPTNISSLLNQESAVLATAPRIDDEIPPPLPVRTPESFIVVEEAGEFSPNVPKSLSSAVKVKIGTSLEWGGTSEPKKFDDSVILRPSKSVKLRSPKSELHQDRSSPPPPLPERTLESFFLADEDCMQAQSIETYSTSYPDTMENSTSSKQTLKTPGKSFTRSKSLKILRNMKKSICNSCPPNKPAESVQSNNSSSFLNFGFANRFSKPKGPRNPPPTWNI

[13] = target: Glucose-6-phosphate 1-dehydrogenase (Homo sapiens, UniProt P11413); experiment: human G6PD enzyme inhibitors, dose response, selectivity assay for P. falciparum G6PD inhibitor project, biochemical, fluorescence (AID 504792); format: functional
Glucose-6-phosphate 1-dehydrogenase, sequence (P11413 whole entry): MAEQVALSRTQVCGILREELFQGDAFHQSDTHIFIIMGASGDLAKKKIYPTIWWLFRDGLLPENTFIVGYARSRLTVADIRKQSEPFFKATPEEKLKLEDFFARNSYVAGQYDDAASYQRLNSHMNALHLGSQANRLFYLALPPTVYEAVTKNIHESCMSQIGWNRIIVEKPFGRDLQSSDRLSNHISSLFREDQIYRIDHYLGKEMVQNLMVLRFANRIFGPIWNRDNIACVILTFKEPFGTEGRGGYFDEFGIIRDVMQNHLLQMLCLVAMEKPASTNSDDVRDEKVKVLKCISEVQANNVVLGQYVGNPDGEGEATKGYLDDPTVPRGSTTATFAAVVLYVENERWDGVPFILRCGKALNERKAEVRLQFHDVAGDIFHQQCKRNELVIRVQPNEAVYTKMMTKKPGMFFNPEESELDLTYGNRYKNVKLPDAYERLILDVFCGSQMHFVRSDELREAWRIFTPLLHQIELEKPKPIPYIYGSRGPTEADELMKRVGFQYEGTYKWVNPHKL

[14] = system: HEK293; experiment: cells; format: functional, cell-based; settings: Homo sapiens
[15] = target: T5, Tyrosine-protein phosphatase non-receptor type 5 (Homo sapiens, UniProt P54829); experiment: STEP phosphatase inhibitors, confirmation, biochemical, fluorescence intensity, uHTS hits (AID 602372); format: functional; settings: read-out: IC50_Mean
T5 sequence (P54829 whole entry): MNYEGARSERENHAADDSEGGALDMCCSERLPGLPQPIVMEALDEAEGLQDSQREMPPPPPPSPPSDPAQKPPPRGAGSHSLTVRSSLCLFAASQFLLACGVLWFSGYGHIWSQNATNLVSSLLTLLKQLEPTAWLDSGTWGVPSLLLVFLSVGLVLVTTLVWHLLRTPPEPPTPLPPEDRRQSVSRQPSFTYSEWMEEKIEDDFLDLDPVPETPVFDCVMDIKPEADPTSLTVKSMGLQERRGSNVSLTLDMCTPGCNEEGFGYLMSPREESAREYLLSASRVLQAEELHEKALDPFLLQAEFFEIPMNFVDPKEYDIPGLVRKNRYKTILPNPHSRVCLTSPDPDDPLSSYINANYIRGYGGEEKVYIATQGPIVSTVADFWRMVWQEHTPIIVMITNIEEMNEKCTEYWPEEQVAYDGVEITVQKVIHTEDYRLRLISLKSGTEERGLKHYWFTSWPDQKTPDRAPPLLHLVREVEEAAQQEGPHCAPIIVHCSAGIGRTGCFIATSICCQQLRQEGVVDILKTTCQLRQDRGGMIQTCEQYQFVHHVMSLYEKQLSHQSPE

[16] = target: T6, Nuclear receptor subfamily 0 group B member 1 (Homo sapiens, UniProt P51843); experiment: Luminescence-based cell-based high throughput dose response assay for inhibitors of the orphan nuclear receptor subfamily 0, group B, member 1 (DAX1; NR0B1). [Related pubchem assays (depositor defined):AID504766, AID504790]; format: functional
T6 sequence (P51843 whole entry): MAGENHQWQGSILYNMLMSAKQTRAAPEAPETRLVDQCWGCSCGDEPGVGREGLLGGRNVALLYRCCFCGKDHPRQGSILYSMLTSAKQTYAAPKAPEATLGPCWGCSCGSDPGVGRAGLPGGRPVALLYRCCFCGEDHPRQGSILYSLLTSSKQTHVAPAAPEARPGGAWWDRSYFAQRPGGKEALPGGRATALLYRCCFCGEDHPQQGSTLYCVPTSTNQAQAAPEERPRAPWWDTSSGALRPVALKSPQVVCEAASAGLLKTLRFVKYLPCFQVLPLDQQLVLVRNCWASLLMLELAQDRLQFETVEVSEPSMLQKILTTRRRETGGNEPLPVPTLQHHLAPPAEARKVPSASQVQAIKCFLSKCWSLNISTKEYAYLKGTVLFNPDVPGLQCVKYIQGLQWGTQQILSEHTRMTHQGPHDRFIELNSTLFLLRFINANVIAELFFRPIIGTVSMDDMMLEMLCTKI

[17] = target: T7, Tyrosine-protein phosphatase non-receptor type 11 (Homo sapiens, UniProt Q06124); experiment: SHP2 phosphatase inhibition, dose response, selectivity assay for STEP inhibitor project, biochemical (AID 602367); format: functional; settings: read-out: IC50_Mean
T7 sequence (Q06124 whole entry): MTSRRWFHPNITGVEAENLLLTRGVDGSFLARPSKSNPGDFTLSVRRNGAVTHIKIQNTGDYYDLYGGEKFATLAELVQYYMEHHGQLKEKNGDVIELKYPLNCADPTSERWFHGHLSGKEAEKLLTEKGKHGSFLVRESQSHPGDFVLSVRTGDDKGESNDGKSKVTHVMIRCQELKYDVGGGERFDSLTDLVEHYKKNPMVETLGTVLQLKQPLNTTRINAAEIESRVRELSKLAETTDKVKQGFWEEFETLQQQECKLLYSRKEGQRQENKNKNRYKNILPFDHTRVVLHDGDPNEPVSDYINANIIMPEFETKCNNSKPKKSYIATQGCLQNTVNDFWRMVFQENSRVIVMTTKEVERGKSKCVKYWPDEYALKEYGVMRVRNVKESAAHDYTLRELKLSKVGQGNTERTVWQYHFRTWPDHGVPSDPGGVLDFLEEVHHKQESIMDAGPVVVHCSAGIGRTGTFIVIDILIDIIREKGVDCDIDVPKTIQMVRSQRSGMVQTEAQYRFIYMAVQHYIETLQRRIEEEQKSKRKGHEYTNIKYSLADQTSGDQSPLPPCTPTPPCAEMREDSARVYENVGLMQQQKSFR

[18] = target: Broad substrate specificity ATP-binding cassette transporter ABCG2 (Homo sapiens, UniProt Q9UNQ0); experiment: ABCG2 efflux pump inhibitors, dose response, Ig-MXP3 cells, flow cytometry (AID 1690); format: functional
[19] = target: T8, Low molecular weight phosphotyrosine protein phosphatase (Homo sapiens, UniProt P24666); format: functional; settings: read-out: IC50_Mean
T8 sequence (P24666 whole entry): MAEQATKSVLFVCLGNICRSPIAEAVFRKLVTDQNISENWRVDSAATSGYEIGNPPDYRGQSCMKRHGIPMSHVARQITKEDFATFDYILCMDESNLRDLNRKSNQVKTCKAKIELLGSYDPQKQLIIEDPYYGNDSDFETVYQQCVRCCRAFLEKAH

[20] = target: Prothrombin (Bos taurus, UniProt P00735); experiment: thrombin inhibition, dose response, biochemical, fluorescence polarization, uHTS hits (AID 602369); format: functional
[21] = target: 26S proteasome non-ATPase regulatory subunit 14 (Homo sapiens, UniProt O00487); experiment: inhibition of proteasome subunit RPN11 – biochemical, fluorescence polarization, uHTS hits, confirmation (AID 602368); format: functional
[22] = target: T8, Low molecular weight phosphotyrosine protein phosphatase; format: functional; settings: read-out: IC50_Mean; remark: listed apart in the source
[23] = target: 72 kDa type IV collagenase (Homo sapiens, UniProt P08253); experiment: Dose Response validation of uHTS RPN11 inhibitor hits using a MMP-2 Fluorescence assay.; format: functional
72 kDa type IV collagenase, sequence (P08253 whole entry): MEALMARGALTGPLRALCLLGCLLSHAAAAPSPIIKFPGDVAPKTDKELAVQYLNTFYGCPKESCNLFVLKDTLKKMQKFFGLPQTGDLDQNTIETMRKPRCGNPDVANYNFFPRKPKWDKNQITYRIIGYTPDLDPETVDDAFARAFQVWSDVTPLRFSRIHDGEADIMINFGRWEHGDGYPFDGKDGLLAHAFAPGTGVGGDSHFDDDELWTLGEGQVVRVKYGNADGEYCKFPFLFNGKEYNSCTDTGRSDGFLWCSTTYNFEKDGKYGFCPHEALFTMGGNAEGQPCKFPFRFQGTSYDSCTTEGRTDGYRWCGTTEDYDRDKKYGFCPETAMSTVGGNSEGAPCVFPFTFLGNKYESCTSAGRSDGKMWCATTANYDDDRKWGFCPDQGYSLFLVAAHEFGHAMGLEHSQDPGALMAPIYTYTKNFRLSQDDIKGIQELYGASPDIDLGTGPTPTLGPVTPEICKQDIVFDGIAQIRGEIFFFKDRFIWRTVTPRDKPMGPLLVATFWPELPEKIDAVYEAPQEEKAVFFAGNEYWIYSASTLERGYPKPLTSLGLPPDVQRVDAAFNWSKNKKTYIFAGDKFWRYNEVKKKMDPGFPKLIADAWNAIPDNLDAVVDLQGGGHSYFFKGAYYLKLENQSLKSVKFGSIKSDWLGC

[24] = target: T9, Protein disulfide-isomerase (Homo sapiens, UniProt P07237); experiment: PDI inhibitors, insulin aggregation turbidity, dose response, biochemical, absorbance, cherry-picked samples (AID 602350); format: functional
T9 sequence (P07237 whole entry): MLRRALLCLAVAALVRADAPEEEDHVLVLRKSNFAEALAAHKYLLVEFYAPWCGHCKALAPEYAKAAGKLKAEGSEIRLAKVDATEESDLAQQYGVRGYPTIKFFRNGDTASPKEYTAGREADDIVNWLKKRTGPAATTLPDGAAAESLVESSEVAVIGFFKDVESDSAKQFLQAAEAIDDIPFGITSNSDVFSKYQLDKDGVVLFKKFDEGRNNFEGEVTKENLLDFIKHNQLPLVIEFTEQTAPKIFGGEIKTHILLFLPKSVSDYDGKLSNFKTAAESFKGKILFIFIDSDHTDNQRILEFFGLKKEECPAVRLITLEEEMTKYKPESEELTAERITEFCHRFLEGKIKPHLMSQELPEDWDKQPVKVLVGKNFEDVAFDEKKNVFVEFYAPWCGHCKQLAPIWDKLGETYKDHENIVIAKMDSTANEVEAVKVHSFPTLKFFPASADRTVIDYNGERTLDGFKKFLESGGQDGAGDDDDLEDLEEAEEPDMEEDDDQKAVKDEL

[25] = target: T9, Protein disulfide-isomerase; experiment: PDI inhibitors, insulin turbidity readout, dose response, biochemical, absorbance, cherry-picked samples, set 2 (AID 624274); format: functional
[26] = target: T10, ATP-dependent translocase ABCB1 (Homo sapiens, UniProt P08183); experiment: ABCB1 efflux inhibitor potency, dose response, Jurkat-DNR cells, JC-1, flow cytometry, set 2 (AID 504569); format: functional; settings: read-out: EC50_MICROM_;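 also: potency of pump inhibitors that raise cellular JC-1 green fluorescence up to the nicardipine level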
T10 sequence (P08183 whole entry): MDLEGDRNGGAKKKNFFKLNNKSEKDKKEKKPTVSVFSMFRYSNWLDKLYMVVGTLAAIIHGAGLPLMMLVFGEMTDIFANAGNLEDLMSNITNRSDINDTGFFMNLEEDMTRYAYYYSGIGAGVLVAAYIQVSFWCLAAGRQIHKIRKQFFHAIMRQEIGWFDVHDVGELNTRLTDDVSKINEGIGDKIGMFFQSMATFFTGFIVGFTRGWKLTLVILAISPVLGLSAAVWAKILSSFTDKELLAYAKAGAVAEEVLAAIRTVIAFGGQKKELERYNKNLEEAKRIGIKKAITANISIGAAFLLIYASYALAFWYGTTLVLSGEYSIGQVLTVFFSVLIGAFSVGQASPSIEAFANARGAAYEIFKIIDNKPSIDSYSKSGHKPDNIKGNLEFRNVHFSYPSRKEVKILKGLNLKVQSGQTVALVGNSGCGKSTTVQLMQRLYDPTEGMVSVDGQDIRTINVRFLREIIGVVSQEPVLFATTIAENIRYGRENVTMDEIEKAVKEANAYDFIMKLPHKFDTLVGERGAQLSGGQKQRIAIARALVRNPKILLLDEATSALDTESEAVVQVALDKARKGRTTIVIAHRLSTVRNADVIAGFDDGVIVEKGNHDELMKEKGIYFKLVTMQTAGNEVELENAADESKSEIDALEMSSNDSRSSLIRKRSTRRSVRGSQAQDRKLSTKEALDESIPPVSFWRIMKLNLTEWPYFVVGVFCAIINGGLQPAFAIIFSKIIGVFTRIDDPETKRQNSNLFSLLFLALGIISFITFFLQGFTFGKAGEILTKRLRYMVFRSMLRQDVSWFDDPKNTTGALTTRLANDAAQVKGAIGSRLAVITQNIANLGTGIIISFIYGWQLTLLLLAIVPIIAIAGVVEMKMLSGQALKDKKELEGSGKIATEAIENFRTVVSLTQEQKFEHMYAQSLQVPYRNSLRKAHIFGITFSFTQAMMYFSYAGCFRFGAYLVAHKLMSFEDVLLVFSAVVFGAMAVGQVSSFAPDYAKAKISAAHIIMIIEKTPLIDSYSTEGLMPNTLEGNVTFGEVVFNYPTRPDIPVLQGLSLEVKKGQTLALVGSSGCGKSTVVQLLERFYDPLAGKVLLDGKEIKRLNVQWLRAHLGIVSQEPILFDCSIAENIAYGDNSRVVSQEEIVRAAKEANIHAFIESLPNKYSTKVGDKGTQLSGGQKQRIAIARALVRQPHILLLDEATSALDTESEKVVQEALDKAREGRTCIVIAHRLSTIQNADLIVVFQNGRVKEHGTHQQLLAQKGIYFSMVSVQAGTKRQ

[27] = target: T10, ATP-dependent translocase ABCB1; experiment: ABCG2 efflux pump inhibitor potency, dose response, Ig-MXP3 cells, JC-1, flow cytometry, set 2 (AID 504566); format: functional; settings: read-out: EC50_MICROM_;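 also: flow cytometry median green fluorescence of retained JC-1 dye; potency of efflux pump inhibition measured as rising substrate retention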
[28] = T. b. rhodesiense proliferation inhibition, dose response, STIB900 strain, plate reader, cherry pick (AID 651893); format: functional, cell-based; settings: Trypanosoma brucei
[29] = cytotoxicity in L-6 rat myocytes, dose response, cytotoxicity control, cell-based, plate reader, cherry-pick (AID 651896); format: functional
[30] = Inhibition of T. cruzi Tulahuen strain amastigotes in L-6 muscle cells Measured in Cell-Based and Microorganism Combination System Using Plate Reader - 2138-03_Inhibitor_Dose_CherryPick_Activity.; format: functional; settings: Rattus norvegicus, L6
[31] = Inhibition of Plasmodium falciparum NF54 Measured in Cell-Based System Using Plate Reader - 2138-11_Inhibitor_Dose_CherryPick_Activity.; format: functional
[32] = intracellular Trypanosoma cruzi inhibitors in host cells – cell-based, plate reader, cherry-pick samples, set 3, dose response (AID 651818); format: functional;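 also: compounds incubated with infected cells for about four days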
[33] = L. donovani amastigote growth inhibition, dose response, axenic amastigotes, plate reader, cherry pick (AID 651891); format: functional, cell-based; settings: Leishmania donovani

In the case of `CCSc1ccc2c(c1)N(CCCN1CCN(C)CC1)c1ccccc1S2`, the AC50 [1] is reported as 1.09 µM (active), the IC50 [2] is reported as > 20 µM (inactive) and the CC50 [3] is reported as 16.3 µM (active). For the same compound, the AC50 [4] was 14.9 µM (active) and the IC50 [5] was 29.9 µM (inactive).
For `COc1ccc(OC)c(S(=O)(=O)N(C)CC(=O)N2CCc3ccccc3C2)c1`, the IC50 [6] was 9.57 µM (active), the IC50 [7] was 8.07 µM (active) and the IC50 [8] was 30.8 µM (active).
With `COc1cccc(CN2CCN(C(=O)c3ccco3)CC2)c1` the EC50 [9] was 92.5 µM (inactive) and the EC50 [10] was 1.16 µM (active).
In the case of `CCN1CCN(C(=S)c2ccc(O)cc2)CC1`, the IC50 [11] is reported as 0.74 µM (active), the IC50 [12] is reported as 45.1 µM (inactive) and the IC50 [13] is reported as > 80 µM (inactive). The IC50 [14] was > 67.6 µM (inactive), the IC50 [15] was 20.1 µM (inactive) and the IC50 [16] was > 67.6 µM (inactive). The IC50 [17] was 0.712 µM (active).
In the case of `Cc1cc(C)c(C#N)c(SCc2c(F)cccc2[N+](=O)[O-])n1`, the EC50 [18] is reported as 3.82 µM (active).
For `COc1ccc(NC(=O)CCn2c(=S)[nH]c3ccccc3c2=O)cc1Cl`, the IC50 [19] was 12 µM (active), the IC50 [20] was > 100 µM (inactive) and the IC50 [21] was 26.3 µM (active). For the same compound, the IC50 [22] was 68.3 µM (inactive) and the IC50 [23] was 4.32 µM (active).
With `C[C@H]1CN([C@@H](C)CO)C(=O)c2cccc(NS(C)(=O)=O)c2O[C@H]1CN(C)Cc1ccc(Oc2ccccc2)cc1` the AC50 [24] was < 0.003 µM (active) and the AC50 [25] was 0.003 µM (active).
With `O=C(c1ccoc1)N1CCN(c2cc(-c3ccccc3)nc3cc(-c4cccc(Cl)c4)nn23)CC1` the EC50 [26] was 9.03 µM (active) and the EC50 [27] was 1 µM (active).
In the case of `C[C@H]1CN([C@@H](C)CO)C(=O)c2cccc(NC(=O)c3ccncc3)c2O[C@H]1CN(C)Cc1ccccc1`, the IC50 [28] is reported as 51.5 µM (inactive), the IC50 [29] is reported as > 100 µM (inactive) and the IC50 [30] is reported as 19.2 µM (inactive). The IC50 [31] was 19.2 µM (inactive), the AC50 [32] was 0.267 µM (active) and the IC50 [33] was > 100 µM (inactive).
